In patent US12180215B2, “Substituted pyrrolo[3,4-d]imidazoles as JAK inhibitors” (HENAN MEDINNO PHARMACEUTICAL TECHNOLOGY CO., LTD., priority 2019, dated 2024):

Experiments:
[1] = target: JAK2 (Homo sapiens, UniProt O60674); test: JAK2 kinase ADP-Glo assay (Example 60)
[2] = target: JAK1 (Homo sapiens, UniProt P23458); test: JAK1 kinase ADP-Glo assay (Example 60)
[3] = target: T1, TYK2 (Homo sapiens, UniProt P29597); test: TYK2 kinase ADP-Glo assay (Example 60)
T1 sequence (P29597 871-1187 limits assumed): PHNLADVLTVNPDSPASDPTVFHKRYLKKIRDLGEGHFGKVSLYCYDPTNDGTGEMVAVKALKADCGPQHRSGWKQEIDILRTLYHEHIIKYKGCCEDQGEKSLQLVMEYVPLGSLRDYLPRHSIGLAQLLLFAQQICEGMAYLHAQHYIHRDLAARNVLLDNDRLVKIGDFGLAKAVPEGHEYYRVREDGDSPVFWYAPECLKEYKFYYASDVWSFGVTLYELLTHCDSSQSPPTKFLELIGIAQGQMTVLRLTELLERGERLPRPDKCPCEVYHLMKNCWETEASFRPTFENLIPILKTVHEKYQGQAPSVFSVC

[4] = target: JAK3 (Homo sapiens, UniProt P52333); test: JAK3 kinase ADP-Glo assay (Example 60)
Sequence of JAK3 (P52333 795-1124 limits assumed): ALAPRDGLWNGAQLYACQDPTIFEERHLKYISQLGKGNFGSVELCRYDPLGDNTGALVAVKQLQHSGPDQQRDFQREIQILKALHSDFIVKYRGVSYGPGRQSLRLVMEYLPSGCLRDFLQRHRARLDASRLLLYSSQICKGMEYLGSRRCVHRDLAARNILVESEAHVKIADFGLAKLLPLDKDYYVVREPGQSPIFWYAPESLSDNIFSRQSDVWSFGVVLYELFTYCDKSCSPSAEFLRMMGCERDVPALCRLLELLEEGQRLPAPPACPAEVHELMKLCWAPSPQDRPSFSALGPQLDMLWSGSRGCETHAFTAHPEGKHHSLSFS

Sequence of JAK1 (P23458 850-1154 limits assumed): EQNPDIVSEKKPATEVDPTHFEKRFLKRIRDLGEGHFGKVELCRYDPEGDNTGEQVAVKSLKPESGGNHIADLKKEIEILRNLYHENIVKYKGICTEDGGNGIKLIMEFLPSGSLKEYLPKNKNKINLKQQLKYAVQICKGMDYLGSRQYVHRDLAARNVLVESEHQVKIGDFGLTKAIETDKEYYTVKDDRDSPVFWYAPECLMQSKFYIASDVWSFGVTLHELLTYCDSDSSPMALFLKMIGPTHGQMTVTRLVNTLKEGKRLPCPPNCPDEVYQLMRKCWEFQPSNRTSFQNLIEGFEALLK
Sequence of JAK2 (O60674 826-1132 limits assumed): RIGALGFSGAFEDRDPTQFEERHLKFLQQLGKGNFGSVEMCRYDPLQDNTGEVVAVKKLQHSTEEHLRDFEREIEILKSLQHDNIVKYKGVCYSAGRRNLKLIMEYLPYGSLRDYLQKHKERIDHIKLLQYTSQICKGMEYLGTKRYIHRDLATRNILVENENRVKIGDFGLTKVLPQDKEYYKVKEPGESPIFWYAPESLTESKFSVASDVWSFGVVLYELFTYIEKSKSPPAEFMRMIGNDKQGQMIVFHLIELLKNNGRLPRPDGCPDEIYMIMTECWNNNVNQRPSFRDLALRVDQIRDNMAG

Row | Compound | IC50 [1] | IC50 [2] | IC50 [3] | IC50 [4]
1 | CCc1cc(O)c(F)cc1-c1ccc2c(-c3nc4c([nH]3)CN(CC3CCC3)C4)n[nH]c2c1 [MDI-210, 4-(3-(5-(cyclobutylmethyl)-1,4,5,6-tetrahydropyrrolo[3,4-d]imidazol-2-yl)-1H-indazol-6-yl)-5-ethyl-2-fluorophenol] | 1.11 nM | 0.347 nM | 31.5 nM | 0.979 nM
2 | CCc1cc(O)c(F)cc1-c1ccc2c(-c3nc4c([nH]3)CN(C(=O)OC)C4)n[nH]c2c1 [MDI-252, Methyl 2-(6-(2-ethyl-5-fluoro-4-hydroxyphenyl)-1H-indazol-3-yl)-4,6-dihydropyrrolo[3,4-d]imidazol-5(1H)-carboxylate] | 2.6 nM | 1.8 nM | 22 nM | 2.2 nM
3 | CCc1cc(O)c(F)cc1-c1ccc2c(-c3nc4c([nH]3)CN(C(=O)CC3CC3)C4)n[nH]c2c1 [MDI-229, 2-cyclopropyl-1-(2-(6-(2-ethyl-5-fluoro-4-hydroxyphenyl)-1H-indazol-3-yl)-4,6-dihydropyrrolo[3,4-d]imidazol-5-(1H)-yl)ethan-1-one] | 0.356 nM | 0.753 nM | 4.71 nM | 0.481 nM
4 | CCc1cc(O)c(F)cc1-c1ccc2c(-c3nc4c([nH]3)CN(C(=O)N3CCN(C)CC3)C4)n[nH]c2c1 [MDI-235, (2-(6-(2-ethyl-5-fluoro-4-hydroxyphenyl)-1H-indazol-3-yl)-4,6-dihydropyrrolo[3,4-d]imidazol-5-(1H)-yl)(4-methylpiperazin-1-yl)ketone] | 0.166 nM | 0.0395 nM | 0.142 nM | 0.183 nM
5 | CCc1cc(O)c(F)cc1-c1ccc2c(-c3nc4c([nH]3)CN(C(=O)C(C)C)C4)n[nH]c2c1 [MDI-228, 1-(2-(6-(2-ethyl-5-fluoro-4-hydroxyphenyl)-1H-indazol-3-yl)-4,6-dihydropyrrolo[3,4-d]imidazol-5-(1H)-yl)-2-methylpropan-1-one] | 0.355 nM | 0.398 nM | 4.76 nM | 0.565 nM
6 | CCc1cc(O)c(F)cc1-c1ccc2c(-c3nc4c([nH]3)CN(C3CCCC3)C4)n[nH]c2c1 [MDI-224, 4-(3-(5-cyclopentyl-1,4,5,6-tetrahydropyrrolo[3,4-d]imidazol-2-yl)-1H-indazol-6-yl)-5-ethyl-2-fluorophenol] | 0.754 nM | 0.248 nM | 16.1 nM | 2.01 nM
7 | CCc1cc(O)c(F)cc1-c1ccc2c(-c3nc4c([nH]3)CN(C(=O)c3cccnn3)C4)n[nH]c2c1 [MDI-215, (2-(6-(2-ethyl-5-fluoro-4-hydroxyphenyl)-1H-indazol-3-yl)-pyrrolo[3,4-d]imidazol-5-(1H,4H,6H)-yl)(pyridazin-3-yl)ketone] | 0.277 nM | 0.197 nM | 1.58 nM | 0.308 nM
8 | CCc1cc(O)c(F)cc1-c1ccc2c(-c3nc4c([nH]3)CN(C(=O)NC)C4)n[nH]c2c1 [MDI-246, 2-(6-(2-ethyl-5-fluoro-4-hydroxyphenyl)-1H-indazol-3-yl)-N-methyl-4,6-dihydropyrrolo[3,4-d]imidazol-5-(1H)-carboxamide] | 0.973 nM | 0.241 nM | 1.52 nM | 0.709 nM
9 | CCc1cc(O)c(F)cc1-c1ccc2c(-c3nc4c([nH]3)CN(C(=O)N3CCOCC3)C4)n[nH]c2c1 [MDI-234, (2-(6-(2-ethyl-5-fluoro-4-hydroxyphenyl)-1H-indazol-3-yl)-4,6-dihydropyrrolo[3,4-d]imidazol-5-(1H)-yl)(morpholino)ketone] | 0.737 nM | 0.206 nM | 0.438 nM | 0.375 nM
10 | CCc1cc(O)c(F)cc1-c1ccc2c(-c3nc4c([nH]3)CN(C(=O)NCCC#N)C4)n[nH]c2c1 [MDI-258, N-(2-cyanoethyl)-2-(6-(2-ethyl-5-fluoro-4-hydroxyphenyl)-1H-indazol-3-yl)-4,6-dihydropyrrolo[3,4-d]imidazole-5(1H)-carboxamide] | 3.31 nM | 0.939 nM | 6.27 nM | 2.36 nM
11 | CCc1cc(O)c(F)cc1-c1ccc2c(-c3nc4c([nH]3)CN(C(=O)N3CC(C#N)C3)C4)n[nH]c2c1 [MDI-249, 1-(2-(6-(2-ethyl-5-fluoro-4-hydroxyphenyl)-1H-indazol-3-yl)-1,4,5,6-tetrahydropyrrolo[3,4-d]imidazol-5-carbonyl)Azetidin-3-nitrile] | 0.697 nM | 0.307 nM | 1.93 nM | 0.398 nM
12 | CCc1cc(O)c(F)cc1-c1ccc2c(-c3nc4c([nH]3)CN(C(=O)N(C)C)C4)n[nH]c2c1 [MDI-257, 2-(6-(2-ethyl-5-fluoro-4-hydroxyphenyl)-1H-indazol-3-yl)-N,N-dimethyl-4,6-dihydropyrrolo[3,4-d]imidazol-5(1H)-carboxamide] | 0.6 nM | 0.185 nM | 0.684 nM | 0.381 nM
13 | CCc1cc(O)c(F)cc1-c1cc(C)c2c(-c3nc4c([nH]3)CN(C(=O)N3CC[C@H](O)C3)C4)n[nH]c2c1 [MDI-240, (S)-(2-(6-(2-ethyl-5-fluoro-4-hydroxyphenyl)-4-methyl-1H-indazol-3-yl)-4,6-dihydropyrrolo[3,4-d]imidazol-5(1H)-yl)(3-hydroxylpyrrolidin-1-yl)ketone] | 0.842 nM | 0.45 nM | 5.34 nM | 2.02 nM
14 | CCc1cc(O)c(F)cc1-c1ccc2c(-c3nc4c([nH]3)CN(C(=O)N3CCC(O)CC3)C4)n[nH]c2c1 [MDI-245, (2-(6-(2-ethyl-5-fluoro-4-hydroxyphenyl)-1H-indazol-3-yl)-4,6-dihydropyrrolo[3,4-d]imidazol-5(1H)-yl)(4-hydroxylpiperidin-1-yl)ketone] | 0.648 nM | 0.178 nM | 0.365 nM | 0.306 nM
15 | CCc1cc(O)c(F)cc1-c1ccc2c(-c3nc4c([nH]3)CN(C(=O)CC#N)C4)n[nH]c2c1 [MDI-256, 3-(2-(6-(2-ethyl-5-fluoro-4-hydroxyphenyl)-1H-indazol-3-yl)-4,6-dihydropyrrolo[3,4-d]imidazol-5(1H)-yl)-3-oxypropionitrile] | 3.06 nM | 0.7 nM | 6.14 nM | 2.71 nM
16 | CCc1cc(O)c(F)cc1-c1ccc2c(-c3nc4c([nH]3)CN(C(=O)[C@H]3CCCN3)C4)n[nH]c2c1 [MDI-263, (R)-6-(2-ethyl-5-fluoro-4-hydroxyphenyl)-3-(5-prolyl-1,4,5,6-tetrahydropyrrolo[3,4-d]imidazol-2-yl)-1H-indazol] | 0.717 nM | 0.12 nM | 0.717 nM | 0.458 nM
17 | CCc1cc(O)c(F)cc1-c1ccc2c(-c3nc4c([nH]3)CN(C(=O)CC(C)C)C4)n[nH]c2c1 [MDI-230, 1-(2-(6-(2-ethyl-5-fluoro-4-hydroxyphenyl)-1H-indazol-3-yl)-4,6-dihydropyrrolo[3,4-d]imidazol-5-(1H)-yl)-3-methylbutan-1-one] | 0.555 nM | 0.819 nM | 6.57 nM | 0.821 nM
18 | CCc1cc(O)c(F)cc1-c1ccc2c(-c3nc4c([nH]3)CN(C(=O)N3CCC3)C4)n[nH]c2c1 [MDI-232, Azetidin-1-yl(2-(6-(2-ethyl-5-fluoro-4-hydroxyphenyl)-1H-indazol-3-yl)-4,6-dihydropyrrolo[3,4-d]imidazol-5-(1H)-yl)ketone] | 1.04 nM | 0.745 nM | 2.26 nM | 0.868 nM
19 | CCNC(=O)N1Cc2nc(-c3n[nH]c4cc(-c5cc(F)c(O)cc5CC)ccc34)[nH]c2C1 [MDI-247, 2-(6-(2-ethyl-5-fluoro-4-hydroxyphenyl)-1H-indazol-3-yl)-N-ethyl-4,6-dihydropyrrolo[3,4-d]imidazol-5-(1H)-carboxamide] | 1.88 nM | 0.557 nM | 2.35 nM | 1.3 nM
20 | CCc1cc(O)c(F)cc1-c1ccc2c(-c3nc4c([nH]3)CN(C(=O)N3CCN(CC)CC3)C4)n[nH]c2c1 [MDI-236, (2-(6-(2-ethyl-5-fluoro-4-hydroxyphenyl)-1H-indazol-3-yl)-4,6-dihydropyrrolo[3,4-d]imidazol-5-(1H)-yl)(4-ethylpiperazin-1-yl)ketone] | 0.329 nM | 0.0403 nM | 0.0954 nM | 0.141 nM
21 | CCc1cc(O)c(F)cc1-c1ccc2c(-c3nc4c([nH]3)CN(C(=O)NC3CC3)C4)n[nH]c2c1 [MDI-259, N-cyclopropyl-2-(6-(2-ethyl-5-fluoro-4-hydroxyphenyl)-1H-indazol-3-yl)-4,6-dihydropyrrolo[3,4-d]imidazol-5(1H)-carboxamide] | 1.3 nM | 0.659 nM | 2.94 nM | 1.29 nM
22 | CCc1cc(O)c(F)cc1-c1ccc2c(-c3nc4c([nH]3)CN(S(=O)(=O)C3CCC3)C4)n[nH]c2c1 [MDI-219, 4-(3-(5-(cyclobutylsulfonyl)-1,4,5,6-tetrahydropyrrolo[3,4-d]imidazol-2-yl)-1H-indazol-6-yl)-5-ethyl-2-fluorophenol] | 1.38 nM | 1.38 nM | 1.88 nM | 2.29 nM
